# Test results published in patent publication US4260745A, “3-Halo cephalosporins” (Eli Lilly and Company, priority 1979, dated 1981).
# Like-named read-outs stand apart in the source and are kept apart here.
# Assays:
# [1] = test system: Penicillin Resistant Staphylococcus; assay: Gradient Plate technique, MIC; format: cell-based; details: read-out: Minimum Inhibitory Concentration
# Excerpt: The following Table II lists the minimum inhibitory concentration (MIC) for 7-[2-(2-thienyl)acetamido]-3-chloro-3-cephem-4-carboxylic acid against penicillin resistant Staphylococcus both in the presence of and absence of serum. The MIC values were obtained by the Gradient Plate technique carried out essentially as described by Bryson and Szybalski, Science, 116, 45 (1952). […]
# [2] = Electrometric titration; format: physicochemical; details: 66% aqueous dmf; only or first pKa; read-out: pKa
# [3] = test system: Escherichia coli; assay: standard disc-plate method, zone of inhibition; format: cell-based; parameters: key: --: A dash indicates no observed zone of inhibition; hazy zone; details: 0.01 mg./ml.; Table IV
# Excerpt: The in vitro antimicrobial activity of the 3-halo cephalosporins is illustrated by the data in the following tables. Table I contains the antimicrobial activity for 7-[2-(2-thienyl)acetamido]-3-chloro-3-cephem-4-carboxylic acid obtained in the standard Disc-plate method. The numerical values are the diameter in millimeters of the zones of inhibition observed with the named organisms.
# In Table IV below, the in vitro antimicrobial activity of 7-[2-(2-thienyl)acetamido]-3-bromo-3-cephem-4-carboxylic acid is presented for several illustrative microorganisms. The data presented were obtained in the standard disc-plate method with the numerical values recording the diameter in millimeters of the zones of inhibition observed with the named microorganisms.
smiles,measurement,setting,value
O=C(Cc1cccs1)NC1C(=O)N2C(C(=O)O)=C(Br)CS[C@H]12 (stereo partly drawn) [7-[2-(2-Thienyl)acetamido]-3-bromo-3-cephem-4-carboxylic acid],MIC,"[1]; Clinical Isolate V 32, No Serum",0.6 µg/mL
same,MIC,"[1]; Clinical Isolate V 41, No Serum",0.5 µg/mL
same,MIC,"[1]; Clinical Isolate V 84, No Serum",0.4 µg/mL
same,MIC,"[1]; Clinical Isolate X 1.1, No Serum",0.3 µg/mL
same,pKa,[2],4.4
same,Zone of Inhibition (diameter in mm),[3],--
